In the case of `CC(=O)c1cccc(C)c1`, the lipophilicity (logP) (in general, a log measure of how a compound divides between an organic and an aqueous phase) came to 2.15.
The value for `Cc1ccc(F)cc1` was 2.58.
For `COc1ccc(F)cc1`, the logP was 2.26.
In turn, `Fc1cccc(F)c1` came in with a logP of 2.21.
As to `Fc1cccc(Br)c1`, the lipophilicity (logP) was found to be 2.92.
Turning to `COc1ccc(Br)cc1`, the lipophilicity (logP) came to 3.05.
The value for `CC(=O)c1cccc(Br)c1` was 2.47; that for `Fc1ccc(Br)cc1` was 3.08.
In the case of `CC(=O)c1cccc(N)c1`, the log partition coefficient (logP) is 0.83.
The value for `Fc1ccc(Cl)cc1` was 2.78.
As to `COc1cccc(Br)c1`, the logP is 3.03.
`Clc1ccc(Br)cc1` displayed a logP of 3.54.
The result for `Cc1cccc(Br)c1` reads 3.41.
Take `Clc1cccc(Br)c1`: the logP is 3.7.
Molecule `Cc1cccc(F)c1` gave a logP of 2.75.
`Cc1ccc(Br)cc1` returned a logP of 3.42.
`COc1ccc(OC)cc1`: the logP was 2.04.
Molecule `Fc1ccc(F)cc1` came in with a logP of 2.13.
For `COc1cccc(F)c1`, the logP turned out to be 2.36.

Source of the values: the OPERA property sets (Mansouri et al. 2018).
